# Tested on: patient with severe arthritis in their knee
# Test: Case observation: MRI and reported pain of a patient's arthritic knee before and after routine use of a phosphodiesterase inhibitor
# Format: in vivo, human
# Settings: one patient, 50 mg of sildenafil, once per day
# Excerpt: A physician, who is also the inventor of the present invention, performed an arthroscopic surgical procedure on a patient suffering from a loose cartilage body in the setting of severe arthritis in their knee. The patient was a competitive senior tennis player and declined knee replacement for that reason. The purpose of the procedure was merely to remove a loose body and abate the mechanical symptoms it caused. Approximately one year later, the patient returned to their physician for evaluation of what was believed to be an unrelated ganglion cyst on the same knee. […] Upon questioning by their physician, the patient explained that the only difference in their medical history (including lifestyle, activity, new illness and medications) between the time of the first and second MRIs was that they started using a phosphodiesterase inhibitor. Specifically, the patient started using Viagra® (50 mg of sildenafil, once per day). There were no other changes in the interval medical history.
smiles,measurement,setting,value
"CCCc1nn(C)c2c(=O)[nH]c(-c3cc(S(=O)(=O)N4CCN(C)CC4)ccc3OCC)nc12 [Viagra®, sildenafil]",intraosseous hypertension / bone edema on coronal MRI of knee (white spots on tibial spines),FIG. 2 MRI compared with FIG. 1 MRI approximately one year earlier,dissipation of the intraosseous hypertension
same,knee pain from arthritis (reported by patient),"few months prior to second MRI, approximately one year after first MRI",reduction in knee pain

# — patent US8778952B2, “Method of reducing intraosseous hypertension” (priority 2007, dated 2014)
